Legend:
Z-138 cells = experiment: Z138 Cell Proliferation Assay; format: cell-based; conditions: Z-138 human mantle cell lymphoma cells, 72 hours, CTG readout
Method: Human Mantle Cell Lymphoma
Z-138 cells were plated in a 96-well plate in IMDM medium containing 10% Horse Serum and PenStrep at a density of 10,000 cells/well. The plates were incubated at 37° C. in a humidified, 5% CO2 incubator. The next day, serially diluted compounds were added in duplicates for 72 hours. Compounds were tested at 10, 2.5, 0.625, 0.156, 0.039, 0.010 0.002 and 0 uM final concentrations. After 72 hours of compound addition, […] of Promega's CTG assay reagent was added and incubated at room temperature for 10 minutes. Chemiluminescence was read using a GloMax Discover instrument.

PRMT5 = PRMT5 (Homo sapiens (Human), UniProt O14744); experiment: PRMT5 Chemiluminescent Assay; format: biochemical; conditions: PRMT5 chemiluminescent assay kit (BPS Bioscience), histone H4 peptide substrate, eight-point dose response
Method: The PRMT5 activity is measured by using “PRMT5 Chemiluminescent Assay Kit” from BPS Bioscience, Catalog Number 52002L as per the instructions of the manufacturer. Briefly, the PRMT5 enzyme is incubated with S-adenosylmethionine in a 96-well plate precoated with histone H4 peptide substrate. Next, a highly specific antibody that recognizes methylated R3 residue of Histone H4 is added followed by a horseradkish peroxidase-labeled (HRP-labeled) secondary antibody. Detection is done by the addition of the HRP substrate to produce chemiluminescence that can be measured quantitatively.
Compounds were serially diluted 3-fold and dosed from 10 uM down to 0 uM. Compounds were tested in duplicates to generate an eight-point dose response for the calculation of their IC50s.

[1] = Mouse Pharmacokinetic Studies; format: in vivo; conditions: male BALB/c mice, 3 mg/kg IV tail bolus, plasma
Method: Samples were obtained from 3 male BALB/c mice at staggered time points. Each mouse was given a tail bolus injection of 3 mg/kg injection of Compound 70 formulated as an IV solution with DMSO: PEG400: Aqueous solution with 20% HP-β-CD (5:30:65, v:v:v) (adjusted by 1N HCl). Blood samples (collected into lithium heparin tubes) were obtained at predose, and at 5, 15, 30 min and at 1, 2-, 4-, 8- and 24-hour, post injection. Plasma was separated from blood and stored at −20° C. prior to analysis. Samples were assayed by a LC/MS/MS procedure [AB Sciex API 4000; ACE Excel 5 C4 Column (50 mm*2.1 mm); Mobile Phase A: 5 mM NH4OAc (with 0.05% FA); Mobile Phase B: ACN (with 0.1% FA)]. Pharmacokinetic parameters were obtained from plasma concentrations using the R program—PK Package, Basic Non-Compartmental Pharmacokinetics, Thomas Jaki and Martin J. Wolfsegger Version 1.3-3, Jan. 6, 2016.

PRMT5, sequence (O14744 2-637): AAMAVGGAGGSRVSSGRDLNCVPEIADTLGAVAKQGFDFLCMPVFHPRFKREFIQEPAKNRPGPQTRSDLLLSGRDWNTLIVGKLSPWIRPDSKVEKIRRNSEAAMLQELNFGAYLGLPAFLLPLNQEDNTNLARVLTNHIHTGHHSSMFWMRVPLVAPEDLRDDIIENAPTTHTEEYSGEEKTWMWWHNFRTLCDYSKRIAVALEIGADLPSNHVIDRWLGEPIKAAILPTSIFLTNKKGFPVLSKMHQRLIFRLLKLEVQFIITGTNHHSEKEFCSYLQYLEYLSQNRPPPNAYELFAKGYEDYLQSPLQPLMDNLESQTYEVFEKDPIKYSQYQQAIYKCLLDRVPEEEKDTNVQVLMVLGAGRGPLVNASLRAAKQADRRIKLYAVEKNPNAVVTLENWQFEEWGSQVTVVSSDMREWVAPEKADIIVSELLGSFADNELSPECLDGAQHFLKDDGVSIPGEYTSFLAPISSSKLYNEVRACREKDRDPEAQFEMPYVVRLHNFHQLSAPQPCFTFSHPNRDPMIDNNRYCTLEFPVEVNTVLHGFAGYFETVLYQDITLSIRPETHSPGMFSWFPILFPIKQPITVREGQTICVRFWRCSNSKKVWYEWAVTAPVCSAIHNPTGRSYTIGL
PRMT5, sequence (Q9BQA1 2-342 partner): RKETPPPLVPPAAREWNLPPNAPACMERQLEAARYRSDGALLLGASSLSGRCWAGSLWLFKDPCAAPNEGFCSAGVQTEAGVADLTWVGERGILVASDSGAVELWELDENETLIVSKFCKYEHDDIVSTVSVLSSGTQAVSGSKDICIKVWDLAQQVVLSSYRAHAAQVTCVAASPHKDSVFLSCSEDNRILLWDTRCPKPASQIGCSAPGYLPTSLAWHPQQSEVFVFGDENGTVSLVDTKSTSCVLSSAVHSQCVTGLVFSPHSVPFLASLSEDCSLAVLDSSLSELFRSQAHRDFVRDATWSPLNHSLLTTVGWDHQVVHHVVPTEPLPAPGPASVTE

O=c1c2ccc(Cl)cc2n(CC2CC2)c(=O)n1C[C@H](O)CN1CCc2ccccc2C1 [Compound 78, 7-chloro-1-(cyclopropylmethyl)-3-[(2R)-3-(3,4-dihydro-1H-isoquinolin-2-yl)-2-hydroxy-propyl]quinazoline-2,4-dione]
IC50 (Z-138 cells): 1950 nM
IC50 (PRMT5): 12 nM

COc1ccc(-c2ccc3c(=O)n(C[C@H](O)CN4CCc5ccccc5C4)c(=O)n(CC4CC4)c3c2)cn1 [Compound 91, 1-(cyclopropylmethyl)-3-[(2R)-3-(3,4-dihydro-1H-isoquinolin-2-yl)-2-hydroxy-propyl]-7-(6-methoxy-3-pyridyl)quinazoline-2,4-dione]
IC50 (Z-138 cells): 1930 nM
IC50 (PRMT5): 43 nM

O=c1c2ccc(Br)cc2n(CC2CC2)c(=O)n1C[C@H](O)CN1CCc2ccccc2C1 [Compound 80, 7-bromo-1-(cyclopropylmethyl)-3-[(2R)-3-(3,4-dihydro-1H-isoquinolin-2-yl)-2-hydroxy-propyl]quinazoline-2,4-dione]
IC50 (Z-138 cells): 1120 nM
IC50 (PRMT5): 9 nM

O=c1c2ccccc2n(CC2CCC2)c(=O)n1C[C@H](O)CN1CCc2ccccc2C1 [Compound 92, 1-(cyclobutylmethyl)-3-[(2R)-3-(3,4-dihydro-1H-isoquinolin-2-yl)-2-hydroxy-propyl]quinazoline-2,4-dione]
IC50 (Z-138 cells): 3630 nM
IC50 (PRMT5): 36 nM

O=c1c2ccccc2n(CC(F)F)c(=O)n1C[C@H](O)CN1CCc2ccccc2C1 [Compound 79, 1-(2,2-difluoroethyl)-3-[(2R)-3-(3,4-dihydro-1H-isoquinolin-2-yl)-2-hydroxy-propyl]quinazoline-2,4-dione]
IC50 (Z-138 cells): 2850 nM
IC50 (PRMT5): 29 nM

O=c1c2ccccc2n(CC2CC2)c(=O)n1C[C@H](O)CN1CCc2ccccc2C1 [Compound 74, 1-(cyclopropylmethyl)-3-[(2R)-3-(3,4-dihydro-1H-isoquinolin-2-yl)-2-hydroxy-propyl]quinazoline-2,4-dione]
IC50 (Z-138 cells): 2940 nM
IC50 Values (PRMT5): <0.014 μMolar

O=c1c2cc(-c3ccc(F)cc3)ccc2n(CC(F)F)c(=O)n1C[C@H](O)CN1CCc2ccccc2C1 [Compound 94, 1-(2,2-difluoroethyl)-3-[(2R)-3-(3,4-dihydro-1H-isoquinolin-2-yl)-2-hydroxy-propyl]-6-(4-fluorophenyl)quinazoline-2,4-dione]
IC50 (Z-138 cells): 10000 nM
IC50 (PRMT5): 45 nM

CC(C)Cn1c(=O)n(C[C@H](O)CN2CCc3ccccc3C2)c(=O)c2ccc(Br)cc21 [Compound 70, 7-bromo-3-[(2R)-3-(3,4-dihydro-1H-isoquinolin-2-yl)-2-hydroxy-propyl]-1-isobutyl-quinazoline-2,4-dione]
IC50 (Z-138 cells): 673 nM
AUC(0-inf) [1]: 748 ng·h/mL
C0 [1]: 1520 ng/mL
MRT inf [1]: 1.22 h
clearance [1]: 66.9 mL/min/kg
half-life [1]: 1.56 h
Vd ([1]; read-out: Vss): 4.88 L/kg
IC50 Values (PRMT5): <0.014 μMolar
